Measurements published in PubChem BioAssay (NCI).
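In this assay, cells in 96-well plates receive the compound at five concentrations for 48 hours. Endpoints are linearly interpolated between the surrounding concentrations. GI50 = concentration required for 50% inhibition of growth. TGI marks complete inhibition of growth.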

Assays:
Experiment in all cases: growth of human tumour cells (NCI), 48 h
TK-10 renal = test system: TK-10 renal
UACC-62 melanoma = test system: UACC-62 melanoma
A498 renal = test system: A498 renal
MOLT-4 leukemia = test system: MOLT-4 leukemia
HL-60(TB) leukemia = test system: HL-60(TB) leukemia
SF-539 CNS = test system: SF-539 CNS
LOX IMVI melanoma = test system: LOX IMVI melanoma
U251 CNS = test system: U251 CNS
RXF 393 renal = test system: RXF 393 renal
HS 578T breast = test system: HS 578T breast
BT-549 breast = test system: BT-549 breast
UO-31 renal = test system: UO-31 renal
HOP-62 NSCLC = test system: HOP-62 NSCLC
HT29 colon = test system: HT29 colon
HOP-92 NSCLC = test system: HOP-92 NSCLC
K-562 leukemia = test system: K-562 leukemia
SK-MEL-2 melanoma = test system: SK-MEL-2 melanoma
SNB-75 CNS = test system: SNB-75 CNS
UACC-257 melanoma = test system: UACC-257 melanoma
RPMI-8226 leukemia = test system: RPMI-8226 leukemia
DU-145 prostate = test system: DU-145 prostate
NCI-H226 lung = test system: NCI-H226 lung
ACHN renal = test system: ACHN renal
HCT-15 colon = test system: HCT-15 colon
OVCAR-5 ovarian = test system: OVCAR-5 ovarian
CCRF-CEM leukemia = test system: CCRF-CEM leukemia
KM12 colon = test system: KM12 colon
HCT-116 colon = test system: HCT-116 colon
SK-MEL-28 melanoma = test system: SK-MEL-28 melanoma
MCF7 breast = test system: MCF7 breast
MDA-MB-231 breast = test system: MDA-MB-231 breast
SNB-19 CNS = test system: SNB-19 CNS
NCI-H23 lung = test system: NCI-H23 lung
OVCAR-8 ovarian = test system: OVCAR-8 ovarian
A549 NSCLC = test system: A549 NSCLC
NCI/ADR-RES ovarian = test system: NCI/ADR-RES ovarian
M14 melanoma = test system: M14 melanoma
SF-268 CNS = test system: SF-268 CNS
PC-3 prostate = test system: PC-3 prostate
SW-620 colon = test system: SW-620 colon
786-0 renal = test system: 786-0 renal
SR leukemia = test system: SR leukemia
SN12C renal = test system: SN12C renal
MDA-MB-435 = test system: MDA-MB-435
MALME-3M melanoma = test system: MALME-3M melanoma
IGROV1 ovarian = test system: IGROV1 ovarian
OVCAR-3 ovarian = test system: OVCAR-3 ovarian
NCI-H460 lung = test system: NCI-H460 lung
SK-MEL-5 melanoma = test system: SK-MEL-5 melanoma
SK-OV-3 ovarian = test system: SK-OV-3 ovarian
NCI-H522 lung = test system: NCI-H522 lung
SF-295 CNS = test system: SF-295 CNS
CAKI-1 renal = test system: CAKI-1 renal
COLO 205 colon = test system: COLO 205 colon
OVCAR-4 ovarian = test system: OVCAR-4 ovarian
HCC-2998 colon = test system: HCC-2998 colon

## Cn1cc(-c2ccc(-c3cn(C)c4ccc(Cl)cc34)[nH]2)c2cc(Cl)ccc21
TK-10 renal
  GI50: 3140 nM
  TGI: 9800 nM
UACC-62 melanoma
  GI50: 946 nM
  TGI: 2390 nM
A498 renal
  GI50: 4170 nM
  TGI: 19000 nM
MOLT-4 leukemia
  GI50: 2850 nM
  TGI: 11000 nM
HL-60(TB) leukemia
  GI50: 438 nM
  TGI: 2620 nM
SF-539 CNS
  GI50: 1140 nM
  TGI: 3450 nM
LOX IMVI melanoma
  GI50: 1220 nM
  TGI: 2670 nM
U251 CNS
  GI50: 398 nM
  TGI: 1290 nM
RXF 393 renal
  GI50: 882 nM
  TGI: 2310 nM
HS 578T breast
  GI50: 1140 nM
  TGI: 5370 nM
BT-549 breast
  GI50: 419 nM
  TGI: 1710 nM
UO-31 renal
  GI50: 208 nM
  TGI: 503 nM
HOP-62 NSCLC
  GI50: 2250 nM
  TGI: 7760 nM
HT29 colon
  GI50: 3920 nM
  TGI: 16000 nM
HOP-92 NSCLC
  GI50: 1150 nM
  TGI: 3280 nM
K-562 leukemia
  GI50: 377 nM
  TGI: 2030 nM
SK-MEL-2 melanoma
  GI50: 1990 nM
  TGI: 4910 nM
SNB-75 CNS
  GI50: 1750 nM
  TGI: 4380 nM
UACC-257 melanoma
  GI50: 2250 nM
  TGI: 4490 nM
RPMI-8226 leukemia
  GI50: 356 nM
  TGI: 1310 nM
DU-145 prostate
  GI50: 3570 nM
  TGI: 15300 nM
NCI-H226 lung
  GI50: 1930 nM
  TGI: 4250 nM
ACHN renal
  GI50: 1080 nM
  TGI: 2280 nM
HCT-15 colon
  GI50: 1100 nM
  TGI: 2500 nM
OVCAR-5 ovarian
  GI50: 663 nM
  TGI: 2820 nM
CCRF-CEM leukemia
  GI50: 373 nM
  TGI: 1700 nM
KM12 colon
  GI50: 1200 nM
  TGI: 3770 nM
HCT-116 colon
  GI50: 1990 nM
  TGI: 5620 nM
SK-MEL-28 melanoma
  GI50: 1820 nM
  TGI: 3950 nM
MCF7 breast
  GI50: 2850 nM
  TGI: 15400 nM
MDA-MB-231 breast
  GI50: 442 nM
  TGI: 1980 nM
SNB-19 CNS
  GI50: 1390 nM
  TGI: 4060 nM
NCI-H23 lung
  GI50: 3230 nM
  TGI: 24700 nM
OVCAR-8 ovarian
  GI50: 1440 nM
  TGI: 5580 nM
A549 NSCLC
  GI50: 1790 nM
  TGI: 4190 nM
NCI/ADR-RES ovarian
  GI50: 1840 nM
  TGI: > 100000 nM
M14 melanoma
  GI50: 1620 nM
  TGI: 4190 nM
SF-268 CNS
  GI50: 1380 nM
  TGI: 4090 nM
PC-3 prostate
  GI50: 434 nM
  TGI: 1720 nM
SW-620 colon
  GI50: 647 nM
  TGI: 3140 nM
786-0 renal
  GI50: 5310 nM
  TGI: 29500 nM
SR leukemia
  GI50: 617 nM
  TGI: 3190 nM
SN12C renal
  GI50: 2390 nM
  TGI: 5720 nM

## N#CC1=C(N)Oc2c(ccc3ccccc23)C1c1cccs1 (configuration not stated)
MDA-MB-435
  GI50: 16.8 nM
  TGI: 42 nM
TK-10 renal
  GI50: 66.9 nM
  TGI: 20200 nM
UACC-62 melanoma
  GI50: 64.7 nM
  TGI: 15200 nM
A498 renal
  GI50: 23.2 nM
  TGI: 84.3 nM
MOLT-4 leukemia
  GI50: 59.4 nM
  TGI: 14600 nM
HL-60(TB) leukemia
  GI50: 28.3 nM
  TGI: 79.3 nM
SF-539 CNS
  GI50: 26 nM
  TGI: 69.6 nM
LOX IMVI melanoma
  GI50: 79.8 nM
  TGI: 14000 nM
U251 CNS
  GI50: 40.7 nM
  TGI: 11300 nM
RXF 393 renal
  GI50: 31.3 nM
  TGI: 21800 nM
HS 578T breast
  GI50: 30.2 nM
  TGI: 14100 nM
BT-549 breast
  GI50: 68.8 nM
  TGI: 3090 nM
UO-31 renal
  GI50: 69.6 nM
  TGI: 17500 nM
HOP-62 NSCLC
  GI50: 58.3 nM
  TGI: 18500 nM
MALME-3M melanoma
  GI50: 38 nM
  TGI: 24300 nM
HT29 colon
  GI50: 53.6 nM
  TGI: 1120 nM
IGROV1 ovarian
  GI50: 82.5 nM
  TGI: 15800 nM
HOP-92 NSCLC
  GI50: 57.3 nM
  TGI: 14100 nM
K-562 leukemia
  GI50: 32.1 nM
  TGI: 12000 nM
UACC-257 melanoma
  GI50: 51.4 nM
  TGI: 22200 nM
OVCAR-3 ovarian
  GI50: 26.9 nM
  TGI: 70.4 nM
RPMI-8226 leukemia
  GI50: 32.9 nM
  TGI: 3600 nM
NCI-H460 lung
  GI50: 36 nM
  TGI: 662 nM
DU-145 prostate
  GI50: 46.3 nM
  TGI: 1030 nM
NCI-H226 lung
  GI50: 1060 nM
  TGI: 19000 nM
SK-MEL-5 melanoma
  GI50: 42.7 nM
  TGI: 5200 nM
ACHN renal
  GI50: 84 nM
  TGI: 14800 nM
HCT-15 colon
  GI50: 44.2 nM
  TGI: 10900 nM
OVCAR-5 ovarian
  GI50: 129 nM
  TGI: 16500 nM
CCRF-CEM leukemia
  GI50: 33.7 nM
  TGI: 11400 nM
KM12 colon
  GI50: 43.4 nM
  TGI: 3450 nM
HCT-116 colon
  GI50: 50.2 nM
  TGI: 1830 nM
SK-OV-3 ovarian
  GI50: 56.5 nM
  TGI: 14700 nM
NCI-H522 lung
  GI50: 18.5 nM
  TGI: 84.6 nM
SF-295 CNS
  GI50: 51.1 nM
  TGI: 17000 nM
MCF7 breast
  GI50: 35.4 nM
  TGI: 13900 nM
MDA-MB-231 breast
  GI50: 140 nM
  TGI: 2720 nM
CAKI-1 renal
  GI50: 46.5 nM
  TGI: 16100 nM
SNB-19 CNS
  GI50: 321 nM
  TGI: 20700 nM
COLO 205 colon
  GI50: 71.6 nM
  TGI: 591 nM
NCI-H23 lung
  GI50: 62.8 nM
  TGI: 12700 nM
OVCAR-8 ovarian
  GI50: 55 nM
  TGI: 12100 nM
A549 NSCLC
  GI50: 61.5 nM
  TGI: 14000 nM
NCI/ADR-RES ovarian
  GI50: 36.8 nM
  TGI: 6070 nM
M14 melanoma
  GI50: 40.5 nM
  TGI: 11900 nM
SF-268 CNS
  GI50: 80.7 nM
  TGI: 10100 nM
PC-3 prostate
  GI50: 41 nM
  TGI: 15000 nM
SW-620 colon
  GI50: 36.6 nM
  TGI: 15200 nM
786-0 renal
  GI50: 57.7 nM
  TGI: 11500 nM
SR leukemia
  GI50: 33.7 nM
  TGI: 7810 nM
OVCAR-4 ovarian
  GI50: 430 nM
  TGI: 18700 nM
SN12C renal
  GI50: 81.6 nM
  TGI: 12900 nM
HCC-2998 colon
  GI50: 132 nM
  TGI: 3890 nM
